The record followed here is ChEMBL document CHEMBL3991601, “The target landscape of clinical kinase drugs” (Science, 2017).

As a reminder, the Kd is the concentration at which binding is half-saturated.

In test [1] the target is Ras-related protein Rab-6A (Homo sapiens, UniProt P20340).
For test [2], the target named is T1, Long-chain-fatty-acid--CoA ligase 5 (Homo sapiens, UniProt Q9ULC5).
T1 sequence (Q9ULC5 whole entry): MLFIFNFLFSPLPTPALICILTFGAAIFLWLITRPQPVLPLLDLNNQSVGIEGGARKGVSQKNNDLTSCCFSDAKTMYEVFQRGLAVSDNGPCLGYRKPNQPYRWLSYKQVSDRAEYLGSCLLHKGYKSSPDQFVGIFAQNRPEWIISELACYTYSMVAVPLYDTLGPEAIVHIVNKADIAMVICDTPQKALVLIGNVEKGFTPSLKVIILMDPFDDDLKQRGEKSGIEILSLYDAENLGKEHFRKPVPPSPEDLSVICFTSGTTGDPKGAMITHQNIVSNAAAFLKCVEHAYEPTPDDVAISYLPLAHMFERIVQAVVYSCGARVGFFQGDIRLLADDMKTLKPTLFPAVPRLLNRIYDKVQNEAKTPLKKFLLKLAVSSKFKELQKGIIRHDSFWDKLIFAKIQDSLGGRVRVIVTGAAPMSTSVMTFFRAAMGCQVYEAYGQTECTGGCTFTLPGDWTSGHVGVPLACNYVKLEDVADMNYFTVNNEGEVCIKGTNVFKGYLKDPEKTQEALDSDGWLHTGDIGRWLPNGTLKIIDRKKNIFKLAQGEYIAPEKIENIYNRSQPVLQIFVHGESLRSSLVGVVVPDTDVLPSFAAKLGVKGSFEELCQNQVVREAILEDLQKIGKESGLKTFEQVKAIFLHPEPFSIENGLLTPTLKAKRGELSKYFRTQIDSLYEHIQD

In test [3] the target is Serine/threonine-protein kinase MRCK gamma (Homo sapiens, UniProt Q6DT37).
Chain of Serine/threonine-protein kinase MRCK gamma (Q6DT37 whole entry): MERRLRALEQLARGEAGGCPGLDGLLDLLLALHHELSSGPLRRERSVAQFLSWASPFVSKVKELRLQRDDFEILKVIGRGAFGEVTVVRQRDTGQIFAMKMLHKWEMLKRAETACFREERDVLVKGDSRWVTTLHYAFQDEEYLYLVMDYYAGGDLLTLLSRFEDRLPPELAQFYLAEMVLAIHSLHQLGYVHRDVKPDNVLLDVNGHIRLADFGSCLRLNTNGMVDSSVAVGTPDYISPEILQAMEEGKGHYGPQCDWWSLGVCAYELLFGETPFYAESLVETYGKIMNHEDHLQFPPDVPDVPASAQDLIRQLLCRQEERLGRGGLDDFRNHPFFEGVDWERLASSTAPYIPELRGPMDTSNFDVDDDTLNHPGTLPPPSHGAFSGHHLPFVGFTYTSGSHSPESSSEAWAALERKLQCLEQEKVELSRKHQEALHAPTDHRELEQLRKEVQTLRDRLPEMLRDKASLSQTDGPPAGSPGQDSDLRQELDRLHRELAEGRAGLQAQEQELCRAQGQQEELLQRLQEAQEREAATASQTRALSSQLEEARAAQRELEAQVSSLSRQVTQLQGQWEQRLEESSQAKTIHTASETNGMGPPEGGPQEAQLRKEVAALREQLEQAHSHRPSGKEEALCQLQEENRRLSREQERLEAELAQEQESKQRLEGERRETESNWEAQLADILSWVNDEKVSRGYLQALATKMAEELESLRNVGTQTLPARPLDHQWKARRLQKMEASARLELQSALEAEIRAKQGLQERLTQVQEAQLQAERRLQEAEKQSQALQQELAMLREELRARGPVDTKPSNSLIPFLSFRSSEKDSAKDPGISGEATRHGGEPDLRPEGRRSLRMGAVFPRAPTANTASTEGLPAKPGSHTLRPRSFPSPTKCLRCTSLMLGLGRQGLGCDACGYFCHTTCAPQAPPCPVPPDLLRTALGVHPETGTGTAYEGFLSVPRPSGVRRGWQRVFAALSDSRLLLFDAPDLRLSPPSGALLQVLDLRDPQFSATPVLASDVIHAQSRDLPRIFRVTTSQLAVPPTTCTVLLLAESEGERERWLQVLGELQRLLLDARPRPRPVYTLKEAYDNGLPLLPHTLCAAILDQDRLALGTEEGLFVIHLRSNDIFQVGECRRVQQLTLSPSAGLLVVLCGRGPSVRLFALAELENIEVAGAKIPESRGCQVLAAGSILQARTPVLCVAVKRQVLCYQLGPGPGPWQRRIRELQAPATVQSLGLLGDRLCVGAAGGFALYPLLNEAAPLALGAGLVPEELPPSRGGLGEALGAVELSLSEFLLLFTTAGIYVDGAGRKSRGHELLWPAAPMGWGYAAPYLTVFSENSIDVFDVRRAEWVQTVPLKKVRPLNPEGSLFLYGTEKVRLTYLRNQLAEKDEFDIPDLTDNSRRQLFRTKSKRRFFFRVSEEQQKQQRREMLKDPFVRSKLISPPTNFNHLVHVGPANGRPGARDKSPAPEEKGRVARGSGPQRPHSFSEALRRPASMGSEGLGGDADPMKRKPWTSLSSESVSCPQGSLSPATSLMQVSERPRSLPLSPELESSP
The target in test [4] is Fibroblast growth factor receptor 1 (Homo sapiens, UniProt P11362).
Chain of Fibroblast growth factor receptor 1 (P11362 whole entry): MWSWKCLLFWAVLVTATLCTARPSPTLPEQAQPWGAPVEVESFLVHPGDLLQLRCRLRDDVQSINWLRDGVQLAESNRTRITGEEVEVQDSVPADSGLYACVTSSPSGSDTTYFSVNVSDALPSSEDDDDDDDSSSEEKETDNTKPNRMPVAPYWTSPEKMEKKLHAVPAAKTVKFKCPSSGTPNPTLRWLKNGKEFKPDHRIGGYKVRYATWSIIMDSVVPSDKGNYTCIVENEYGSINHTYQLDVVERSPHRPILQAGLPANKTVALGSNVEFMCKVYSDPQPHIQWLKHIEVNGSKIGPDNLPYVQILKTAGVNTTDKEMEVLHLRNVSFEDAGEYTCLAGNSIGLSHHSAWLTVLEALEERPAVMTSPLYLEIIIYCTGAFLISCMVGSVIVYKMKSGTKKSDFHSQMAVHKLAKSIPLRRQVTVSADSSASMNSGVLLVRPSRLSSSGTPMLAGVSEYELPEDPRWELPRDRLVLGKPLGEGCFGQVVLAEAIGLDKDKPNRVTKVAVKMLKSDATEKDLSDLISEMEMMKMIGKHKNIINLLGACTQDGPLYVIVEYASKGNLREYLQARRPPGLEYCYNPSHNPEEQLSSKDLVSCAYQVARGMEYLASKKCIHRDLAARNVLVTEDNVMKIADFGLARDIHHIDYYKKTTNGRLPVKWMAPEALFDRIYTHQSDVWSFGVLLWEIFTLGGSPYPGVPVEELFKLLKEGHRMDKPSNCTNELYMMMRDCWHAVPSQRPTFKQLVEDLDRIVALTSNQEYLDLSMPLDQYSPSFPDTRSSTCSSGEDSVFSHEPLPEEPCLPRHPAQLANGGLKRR
Test [5] deals with T2, cGMP-dependent protein kinase 1 (Homo sapiens, UniProt Q13976).
T2 sequence (Q13976 whole entry): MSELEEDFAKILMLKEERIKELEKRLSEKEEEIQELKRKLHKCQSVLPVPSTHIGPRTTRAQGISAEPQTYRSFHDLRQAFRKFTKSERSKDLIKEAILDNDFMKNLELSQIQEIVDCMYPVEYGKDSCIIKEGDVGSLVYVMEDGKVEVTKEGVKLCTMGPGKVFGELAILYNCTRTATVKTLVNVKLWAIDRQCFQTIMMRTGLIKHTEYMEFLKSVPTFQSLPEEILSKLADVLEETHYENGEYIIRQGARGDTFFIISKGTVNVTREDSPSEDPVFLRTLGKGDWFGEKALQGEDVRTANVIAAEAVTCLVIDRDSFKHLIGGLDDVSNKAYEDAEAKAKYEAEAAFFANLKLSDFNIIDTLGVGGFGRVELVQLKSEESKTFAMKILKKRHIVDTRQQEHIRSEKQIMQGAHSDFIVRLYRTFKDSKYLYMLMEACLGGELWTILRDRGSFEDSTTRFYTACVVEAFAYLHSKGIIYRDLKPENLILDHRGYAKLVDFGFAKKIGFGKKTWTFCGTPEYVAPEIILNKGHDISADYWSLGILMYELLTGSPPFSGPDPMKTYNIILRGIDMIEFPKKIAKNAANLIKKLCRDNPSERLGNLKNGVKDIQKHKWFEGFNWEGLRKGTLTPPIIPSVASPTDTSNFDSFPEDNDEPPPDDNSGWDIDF

Test [6] deals with T3, Beta-adrenergic receptor kinase 1 (Homo sapiens, UniProt P25098).
T3 sequence (P25098 whole entry): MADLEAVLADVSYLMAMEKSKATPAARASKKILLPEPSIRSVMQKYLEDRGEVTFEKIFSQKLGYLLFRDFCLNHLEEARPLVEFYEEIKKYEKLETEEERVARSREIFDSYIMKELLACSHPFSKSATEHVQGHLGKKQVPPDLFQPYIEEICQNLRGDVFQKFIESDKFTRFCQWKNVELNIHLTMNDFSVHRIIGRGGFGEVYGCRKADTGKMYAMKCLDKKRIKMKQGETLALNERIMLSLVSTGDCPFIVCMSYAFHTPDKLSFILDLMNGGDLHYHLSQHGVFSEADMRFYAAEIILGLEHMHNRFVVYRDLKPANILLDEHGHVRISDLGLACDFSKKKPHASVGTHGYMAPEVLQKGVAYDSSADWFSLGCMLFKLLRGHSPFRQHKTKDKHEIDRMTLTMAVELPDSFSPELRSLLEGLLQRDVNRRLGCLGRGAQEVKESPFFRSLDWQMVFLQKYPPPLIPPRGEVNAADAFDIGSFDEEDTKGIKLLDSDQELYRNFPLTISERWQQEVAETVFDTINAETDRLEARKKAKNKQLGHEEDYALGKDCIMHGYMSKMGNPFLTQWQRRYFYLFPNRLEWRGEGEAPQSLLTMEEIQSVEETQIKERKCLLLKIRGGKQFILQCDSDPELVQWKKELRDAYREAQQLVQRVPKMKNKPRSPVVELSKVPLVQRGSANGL

The target of test [7] is T4, Tyrosine--tRNA ligase, cytoplasmic (Homo sapiens, UniProt P54577).
T4 sequence (P54577 whole entry): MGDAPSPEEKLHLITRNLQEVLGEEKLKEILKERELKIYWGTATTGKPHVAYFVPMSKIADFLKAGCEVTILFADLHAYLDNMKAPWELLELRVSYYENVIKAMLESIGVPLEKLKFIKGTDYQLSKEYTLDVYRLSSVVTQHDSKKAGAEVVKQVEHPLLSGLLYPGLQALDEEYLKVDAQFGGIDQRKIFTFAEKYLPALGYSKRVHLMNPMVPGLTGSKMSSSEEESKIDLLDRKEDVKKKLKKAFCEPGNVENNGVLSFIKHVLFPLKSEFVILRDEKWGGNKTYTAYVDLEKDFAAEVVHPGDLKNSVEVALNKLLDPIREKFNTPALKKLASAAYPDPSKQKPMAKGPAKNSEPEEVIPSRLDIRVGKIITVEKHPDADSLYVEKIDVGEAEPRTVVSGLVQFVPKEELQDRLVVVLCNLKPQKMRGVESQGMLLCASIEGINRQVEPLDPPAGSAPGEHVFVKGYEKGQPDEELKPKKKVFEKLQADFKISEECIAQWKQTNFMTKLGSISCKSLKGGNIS

A further test addresses Aurora kinase B (Homo sapiens, UniProt Q96GD4).
The target of test [8] is Cyclin-dependent kinase 3 (Homo sapiens, UniProt Q00526).
Test [9] addresses Myosin light chain kinase, smooth muscle (Homo sapiens, UniProt Q15746).
In test [10] the target is Atypical kinase COQ8A, mitochondrial (Homo sapiens, UniProt Q8NI60).
Chain of Atypical kinase COQ8A, mitochondrial (Q8NI60 whole entry): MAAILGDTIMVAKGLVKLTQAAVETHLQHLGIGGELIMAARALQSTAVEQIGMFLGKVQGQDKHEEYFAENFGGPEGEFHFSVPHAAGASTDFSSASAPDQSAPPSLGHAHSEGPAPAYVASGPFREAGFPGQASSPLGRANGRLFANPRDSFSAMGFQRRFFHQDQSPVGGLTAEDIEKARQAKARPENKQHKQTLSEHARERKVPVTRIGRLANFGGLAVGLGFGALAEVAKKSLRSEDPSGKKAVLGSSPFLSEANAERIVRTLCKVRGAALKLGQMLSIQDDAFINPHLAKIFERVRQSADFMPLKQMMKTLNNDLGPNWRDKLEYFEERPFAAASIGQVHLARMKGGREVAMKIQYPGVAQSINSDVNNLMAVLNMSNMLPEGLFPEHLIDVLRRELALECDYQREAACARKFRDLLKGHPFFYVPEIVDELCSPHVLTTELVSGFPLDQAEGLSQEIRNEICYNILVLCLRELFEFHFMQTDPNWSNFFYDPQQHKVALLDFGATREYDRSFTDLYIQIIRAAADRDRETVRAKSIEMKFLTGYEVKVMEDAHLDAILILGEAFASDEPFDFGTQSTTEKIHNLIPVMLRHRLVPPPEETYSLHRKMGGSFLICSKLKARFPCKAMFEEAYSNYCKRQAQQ

The source made the active and inactive calls. Where only a bound is given, the exact number is not on record here.
Note: in the data inactive means no Kd found up to 30 µM.

Chain of Myosin light chain kinase, smooth muscle (Q15746 whole entry): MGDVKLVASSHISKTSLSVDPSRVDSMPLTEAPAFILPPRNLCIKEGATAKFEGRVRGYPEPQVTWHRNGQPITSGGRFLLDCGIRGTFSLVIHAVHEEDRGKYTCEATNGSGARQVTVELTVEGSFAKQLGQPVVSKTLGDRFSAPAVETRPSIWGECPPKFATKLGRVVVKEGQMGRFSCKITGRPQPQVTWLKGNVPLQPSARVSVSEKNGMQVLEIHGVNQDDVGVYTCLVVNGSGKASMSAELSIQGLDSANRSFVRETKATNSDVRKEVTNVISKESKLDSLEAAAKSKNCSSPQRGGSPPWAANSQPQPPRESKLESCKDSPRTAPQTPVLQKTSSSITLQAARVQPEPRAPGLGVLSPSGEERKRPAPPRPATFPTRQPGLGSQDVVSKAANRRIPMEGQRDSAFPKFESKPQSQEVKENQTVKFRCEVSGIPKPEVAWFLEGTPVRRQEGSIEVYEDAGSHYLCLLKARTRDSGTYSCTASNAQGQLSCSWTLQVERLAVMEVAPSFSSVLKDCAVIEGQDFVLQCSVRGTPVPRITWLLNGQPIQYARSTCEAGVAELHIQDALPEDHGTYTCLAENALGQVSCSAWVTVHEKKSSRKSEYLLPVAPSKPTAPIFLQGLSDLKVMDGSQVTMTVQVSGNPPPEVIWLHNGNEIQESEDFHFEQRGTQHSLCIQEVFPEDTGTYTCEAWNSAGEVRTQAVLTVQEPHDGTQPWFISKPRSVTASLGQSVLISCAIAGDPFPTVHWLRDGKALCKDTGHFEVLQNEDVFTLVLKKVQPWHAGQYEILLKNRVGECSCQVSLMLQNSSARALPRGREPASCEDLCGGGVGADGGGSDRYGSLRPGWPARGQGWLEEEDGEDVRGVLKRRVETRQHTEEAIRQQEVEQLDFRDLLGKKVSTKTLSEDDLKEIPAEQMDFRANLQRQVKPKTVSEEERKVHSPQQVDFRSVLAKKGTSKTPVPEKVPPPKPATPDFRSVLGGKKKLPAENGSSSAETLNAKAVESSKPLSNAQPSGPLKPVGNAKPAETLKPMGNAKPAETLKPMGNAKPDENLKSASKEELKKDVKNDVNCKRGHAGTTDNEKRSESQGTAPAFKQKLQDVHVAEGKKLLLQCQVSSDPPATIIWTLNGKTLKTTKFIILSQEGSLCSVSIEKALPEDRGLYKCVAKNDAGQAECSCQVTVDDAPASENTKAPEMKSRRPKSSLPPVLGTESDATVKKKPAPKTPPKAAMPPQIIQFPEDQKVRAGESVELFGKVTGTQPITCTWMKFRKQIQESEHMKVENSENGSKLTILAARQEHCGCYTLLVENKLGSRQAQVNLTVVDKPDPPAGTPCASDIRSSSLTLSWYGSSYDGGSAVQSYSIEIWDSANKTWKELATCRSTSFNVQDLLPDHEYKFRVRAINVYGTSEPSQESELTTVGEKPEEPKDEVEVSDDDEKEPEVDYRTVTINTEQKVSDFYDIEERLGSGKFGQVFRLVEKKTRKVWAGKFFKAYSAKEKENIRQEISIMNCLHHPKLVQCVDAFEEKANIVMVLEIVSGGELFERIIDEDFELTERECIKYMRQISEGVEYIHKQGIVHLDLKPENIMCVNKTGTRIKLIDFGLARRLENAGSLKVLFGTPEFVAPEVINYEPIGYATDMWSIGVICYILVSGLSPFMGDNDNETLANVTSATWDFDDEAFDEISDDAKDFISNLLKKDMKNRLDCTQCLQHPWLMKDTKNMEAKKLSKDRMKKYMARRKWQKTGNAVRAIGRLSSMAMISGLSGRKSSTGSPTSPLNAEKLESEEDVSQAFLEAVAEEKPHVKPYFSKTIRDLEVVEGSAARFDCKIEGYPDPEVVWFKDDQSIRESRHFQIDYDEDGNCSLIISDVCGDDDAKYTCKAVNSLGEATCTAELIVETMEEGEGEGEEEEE

As to `COCCN1CCN(Cc2ccc(-c3n[nH]c4c3C(=O)c3c(NC(=O)NN5CCOCC5)cccc3-4)cc2)CC1` [RGB-286638], the Kd in [1], in [2], in test [3], in test [4], in test [5] and in test [6] was > 30 µM (inactive) throughout. The Kd (in test [7]; at Aurora kinase B; in [8]; in test [9]; in test [10]) was > 30 µM (inactive) each time.

For the molecule `CNC(=O)c1cccc(-c2ccc3c(N4CCOC[C@@H]4C)nc(N4CCOC[C@@H]4C)nc3n2)c1` [VISTUSERTIB], the Kd in test [1], in test [2], in test [3], in test [4], in [5] and in [6] was > 30 µM (inactive) in each case. Moreover, the Kd (in [7]; on Aurora kinase B; in [8]; in test [9]; in test [10]) was > 30 µM (inactive) throughout.

For `O=C(Nc1ccc(OC(F)(F)F)cc1)c1sccc1NCc1ccnc2ccccc12` [OSI-930], the Kd in test [1], in test [2], in test [3], in test [4], in test [5] and in [6] was > 30 µM (inactive) in each case. In addition, the Kd (in test [7]; on Aurora kinase B; in test [8]; in test [9]; in [10]) was > 30 µM (inactive) each time.

With `COc1cccc2cc(-c3nc([C@H]4CC[C@H](C(=O)O)CC4)n4ncnc(N)c34)[nH]c12` [OSI-027], the Kd in [1], in [2], in test [3], in test [4], in test [5] and in [6] was > 30 µM (inactive) each time. The Kd (in test [7]; on Aurora kinase B; in test [8]; in [9]; in [10]) was > 30 µM (inactive) throughout.

On to `CN1CCN(c2nc(C3=C(c4c[nH]c5ccccc45)C(=O)NC3=O)c3ccccc3n2)CC1` [SOTRASTAURIN], for which the Kd in test [1], in [2], in [3], in test [4], in test [5] and in test [6] was > 30 µM (inactive) throughout. For the same molecule, the Kd (in test [7]; at Aurora kinase B; in test [8]; in test [9]; in test [10]) was > 30 µM (inactive) throughout.

Regarding `CNC(=O)c1ccc(Nc2ncc(C(F)(F)F)c(NCc3nccnc3N(C)S(C)(=O)=O)n2)cc1` [DEFACTINIB], the Kd in test [1], in test [2], in [3], in test [4], in test [5] and in [6] was > 30 µM (inactive) throughout. The Kd was > 30 µM (inactive) in test [7]; 1.46 µM (active) on Aurora kinase B; > 30 µM (inactive) in test [8]; > 30 µM (inactive) in test [9]; > 30 µM (inactive) in test [10].

Take `Cc1c(Cn2c(C)nc3c(C(=O)O)cc(N4CCOCC4)cc32)cccc1C(F)(F)F` [GSK-2636771]: the Kd in [1], in [2], in [3], in test [4], in [5] and in test [6] was > 30 µM (inactive) each time. Further, the Kd (in [7]; at Aurora kinase B; in test [8]; in test [9]; in test [10]) was > 30 µM (inactive) throughout.

As for `Cc1cc(C(=O)Nc2cc(Oc3ccc4nc(NC(=O)C5CC5)cn4n3)ccc2C)n(C)n1` [TAK-593], the Kd in test [1], in test [2], in [3], in test [4], in test [5] and in [6] was > 30 µM (inactive) each time. Further, the Kd (in test [7]; at Aurora kinase B; in [8]; in [9]; in test [10]) was > 30 µM (inactive) each time.

Consider `Cn1cc(-c2[nH]c3cc(NC(=O)[C@H](N)C4CCCCC4)cc4c3c2C=NNC4=O)cn1`, for which the Kd in test [1] was > 30 µM (inactive); in test [2] it was > 30 µM (inactive); in test [3], > 30 µM (inactive); in [4], 0.192 µM (active); in test [5] it was > 30 µM (inactive); in test [6], 3.56 µM (active). In addition, the Kd in test [7] was > 30 µM (inactive); at Aurora kinase B, 0.12 µM (active); in test [8], > 30 µM (inactive); in test [9], > 30 µM (inactive); in test [10] it was > 30 µM (inactive).
